B1: rhGrem1: rhGrem1 protein used to stimulate breast cancer cells (protein)
chain: KKKGSQGAIPPPDKAQHNDSEQTQSPQQPGSRNRGRGQGRGTAMPGEEVLESSQEALHVTERKYLKRDWCKTQPLKQTIHEEGCNSRTIINRFCYGQCNSFYIPRHIRKEEGSFQSCSFCKPKKFTTMMVTLNCPELQPPTKKKRVTRVKQCRCISIDLD

Legend:
[1] = system: PC-3 prostate cancer cells; experiment: PC-3 prostate cancer model in NSG mice (BLI); assay type: in vivo, human; settings: vs AbA33
Experimental: The PC-3 human prostate cancer cell line was obtained from ATCC (Manassas, VA, USA). The cell line expresses luciferase produced by retroviral expression of the SFG-NES-TGL vector (Ponomarev, V., et al. 2004). Cancer cells were cultured in RPMI1640 (Life Technologies, Australia) supplemented with 10% foetal bovine serum (FBS, Life Technologies, Australia), 100 IU/mL penicillin (Life Technologies, Australia), 100 μg/mL streptomycin (Life Technologies, Australia) and 25 mM HEPES (Life Technologies, Australia) at 37° C. in a 5% CO2 humidified atmosphere.
5-week old NOD.Cg-Prkd^scid Il2rg^tm1Wjl/SzJ (NSG) immunocompromised mice were subcutaneously (s.c) administered two 30 mg/kg doses of anti-Grem1 antibody (UCB6114) or IgG control, AbA33, the week prior to tumour cell inoculation. 5×10^5 luciferase expressing PC-3 […] prostate cancer cells were injected systemically via the caudal artery (CA).
(§1) Antibody treatment continued twice weekly for the duration of the study. A t weekly intervals, mice were administered 150 mg/kg luciferin intraperitoneally (i.p) and imaged using the Xenogen IVIS Bioluminescence Imaging System, and tumour burden was quantitated using Living Image software (PerkinElmer, MA, USA). At the end of each study, organs were dissected upon culling animals and BLI imaged ex vivo for analysis of tumour metastasis.

[2] = system: MDA-MB-231 human breast cancer cells; experiment: MDA-MB-231 breast cancer model in NSG mice (BLI); assay type: in vivo; settings: vs AbA33, p>0.05
Experimental: MDA-MB-231: 5-week old NOD/SCiD/gamma (NSG) immunocompromised mice were subcutaneously (s.c) administered two 30 mg/kg doses of anti-Grem1 antibody UCB6114 or IgG control, AbA33, the week prior to tumour cell inoculation. 1×10^5 luciferase expressing MDA-MB-231 human breast cancer cells were injected systemically via the CA.
as §1, with “Treatment” for “Antibody treatment”, “At” for “A t”, “software. The study ended on day 13 and day 22 post-tumour cell injection for” for “software (PerkinElmer, MA, USA). At”, “PyMT-B01 and MDA-MB-231 models respectively, according to animal ethics requirements. Organs” for “end of each study, organs”

[3] = system: MDA-MB-231-TXSA cells; experiment: Proliferation assay of MDA-MB-231-TXSA cells in hypoxia (luciferase); assay type: cell-based, human; settings: rhGrem1 0-1000 ng/ml
Experimental: Luciferase expressing MDA-MB-231-TXSA cells were seeded in 96-well microtiter plates (1×10^4 cells/well). Cells were cultured either under normoxic or hypoxic conditions and allowed to adhere overnight. Cells were then serum starved for 6 hrs before treatment with increasing concentrations of rhGrem1 protein (0-1000 ng/ml). At 24 and 48 hr time points, luciferase expression was evaluated and used as a surrogate measure of cell number. Briefly, cells were washed in 1×PBS, and subsequently lysed in cell culture lysis buffer (Promega). Luciferase Assay Reagent (5 mM MgCl2, 30 mM HEPES, 150 μM ATP, […] Coenzyme A and 150 μg/mL D-luciferin (Biosynth AG, Staad, Switzerland)) was added to cell lysates, and luminescence was quantified immediately using a luminometer plate reader (Wallac 3000).

Row | Molecule | Whole animal tumour burden (BLI) ([1]; 30 mg/kg s.c. twice weekly) | Hindlimb tumour burden (ex vivo BLI) [1] | Liver tumour burden (ex vivo BLI) [1] | Lung tumour burden (ex vivo BLI) [1] | Mean tumour burden (BLI) ([2]; day 22) | Mean tumour burden for lung metastasis (ex vivo BLI) [2] | Maximal increase in MDA-MB-231-TXSA proliferation, hypoxic compared to normoxic conditions ([3]; 24 hr) [fold] | Maximal increase in MDA-MB-231-TXSA proliferation, hypoxic compared to normoxic conditions ([3]; 48 hr) [fold]
1 | UCB6114: novel anti-Grem1 neutralising monoclonal antibody | significant reduction | downward trend | significant reduction | downward trend | lower | reduction in mean tumour burden | – | –
2 | B1 | – | – | – | – | – | – | 1.5 | 1.7

— patent US12162934B2, “Gremlin-1 antagonist for the prevention and treatment of cancer” (UCB BIOPHARMA SRL, priority 2018, dated 2024)
